{"source": "patent US20170239173A1", "about": "“TRANSDERMAL ABSORPTION ENHANCER AND TRANSDERMAL ABSORPTION ENHANCEMENT AID” (ASAHI KASEI KABUSHIKI KAISHA, priority 2014, published 2017)", "key": {"[1]": {"details": "cited from earlier work"}, "[2]": {"assay": "Franz cell test of MZR preparations, artificial skin", "details": "equimolar salt of choline with the acidic compound b) as enhancer"}, "[3]": {"details": "cited from earlier work", "remark": "listed apart in the source"}, "[4]": {"assay": "Solubility / state of the active ingredient in the preparation (equimolar salt or enhancer)", "assay_type": "physicochemical", "details": "solubility of MZR in the equimolar salt of the basic compound a) with isostearic acid or linoleic acid"}, "[5]": {"system": "hairless mouse skin (Laboskin)"}, "[6]": {"system": "Yucatan Micropig Skin", "details": "Non Patent Literature 1, at maximum; cited from earlier work"}, "[7]": {"details": "subcutaneous administration to rats; cited from earlier work"}, "[8]": {"details": "partition coefficient between water and 1-octanol; cited from earlier work"}}, "note": "Where two headings read alike, the source gives them in different places."}
{"compound": "CC(C)CCCCCCCCCCCCCCC(=O)O", "note": "[Isostearic acid]", "values": [{"measurement": "pKa", "setting": "[1]", "value": 4.90}]}
{"compound": "CC(O)C(=O)O", "note": "(racemic) [DL-lactic acid]", "values": [{"measurement": "Transdermal penetrability of MZR (artificial skin)", "setting": "[2]", "value": "Penetrated"}]}
{"compound": "O=C(O)CCCC(=O)O", "note": "[Glutaric acid]", "values": [{"measurement": "pKa", "setting": "[1]", "value": 4.34}, {"measurement": "pKa", "setting": "[1]; second value", "value": 5.42}, {"measurement": "Water solubility", "setting": "[3]; 20° C.", "value": "430 g/L (20° C.)"}, {"measurement": "Transdermal penetrability of MZR (artificial skin)", "setting": "[2]", "value": "Penetrated"}]}
{"compound": "CCCCCCCCCCCCCCCCCC(=O)O", "note": "[Stearic acid]", "values": [{"measurement": "pKa", "setting": "[1]", "value": 4.75}]}
{"compound": "C[N+](C)(C)CCOP(=O)([O-])OC[C@H](O)CO", "note": "[αGPC]", "values": [{"measurement": "MZR dissolution", "setting": "[4]", "value": "Insoluble"}, {"measurement": "Transdermal penetrability of MZR", "setting": "[5]", "value": "Not penetrated"}]}
{"compound": "O=C(O)/C=C/C(=O)O", "note": "[Fumaric acid]", "values": [{"measurement": "Water solubility", "setting": "[3]; 25° C.", "value": 0.63, "unit": "g/100 mL-water"}]}
{"compound": "CCCCCCCCCCCCCCCC(=O)O", "note": "[Palmitic acid]", "values": [{"measurement": "pKa", "setting": "[1]", "value": 4.75}]}
{"compound": "O=C(O)CO", "note": "[Glycolic acid]", "values": [{"measurement": "Transdermal penetrability of MZR (artificial skin)", "setting": "[2]", "value": "Penetrated"}]}
{"compound": "COc1cc(C(O)C(=O)O)ccc1O", "note": "(centres unmarked) [Vanillylmandelic acid]", "values": [{"measurement": "Transdermal penetrability of MZR (hairless mouse)", "setting": "[5]", "value": "Not penetrated"}, {"measurement": "pKa", "setting": "[1]", "value": 3.11}, {"measurement": "Water solubility", "setting": "[3]; H2O", "value": "H2O: ~50 mg/mL"}]}
{"compound": "Nc1nc2c(ncn2COCCO)c(=O)[nH]1", "note": "[ACV, acyclovir]", "values": [{"measurement": "transdermal penetration amount of ACV for 24 hours", "setting": "[6]", "value": "≤ 0.5", "unit": "μg/cm^2"}]}
{"compound": "CC(O)CNCC(C)O", "note": "(centres unmarked) [DIPA]", "values": [{"measurement": "MZR dissolution", "setting": "[4]", "value": "Insoluble"}, {"measurement": "Transdermal penetrability of MZR", "setting": "[5]", "value": "Not penetrated"}]}
{"compound": "N=C(N)N", "note": "[Guanidine]", "values": [{"measurement": "MZR dissolution", "setting": "[4]", "value": "Dissolved"}, {"measurement": "Transdermal penetrability of MZR", "setting": "[5]", "value": "Penetrated"}]}
{"compound": "NCCc1c[nH]cn1", "note": "[Histamine]", "values": [{"measurement": "MZR dissolution", "setting": "[4]", "value": "Dissolved"}, {"measurement": "Transdermal penetrability of MZR", "setting": "[5]", "value": "Penetrated"}]}
{"compound": "NC(=O)c1ncn([C@@H]2O[C@H](CO)[C@@H](O)[C@H]2O)c1O", "note": "[MZR, mizoribine]", "values": [{"measurement": "rate of penetration", "setting": "[5]; hairless, mouse", "value": "approximately 30%"}, {"measurement": "no-observed-adverse-effect level (NOAEL)", "setting": "[7]", "value": 5, "unit": "mg/kg"}, {"measurement": "Log P", "setting": "[8]", "value": "−1.9"}]}
{"compound": "CCCCCCCCCCCC(=O)O", "note": "[Dodecanoic acid]", "values": [{"measurement": "Transdermal penetrability of MZR (hairless mouse)", "setting": "[5]", "value": "Penetrated"}, {"measurement": "pKa", "setting": "[1]", "value": 5.30}, {"measurement": "Water solubility", "setting": "[3]; 20° C.", "value": "5.5 mg/100 g (20° C.)"}]}
{"compound": "CCCCCCCCCCCCCC(=O)O", "note": "[Myristic acid]", "values": [{"measurement": "Transdermal penetrability of MZR (hairless mouse)", "setting": "[5]", "value": "Penetrated"}, {"measurement": "pKa", "setting": "[1]", "value": 4.90}, {"measurement": "Water solubility", "setting": "[3]; at 18° C.", "value": "<0.1", "unit": "g/100 mL at"}]}
{"compound": "CCCCCCCC/C=C\\CCCCCCCC(=O)O", "note": "[Oleic acid]", "values": [{"measurement": "Transdermal penetrability of MZR (hairless mouse)", "setting": "[5]", "value": "Penetrated"}, {"measurement": "Water solubility", "setting": "[3]; in words", "value": "negligible"}]}
{"compound": "O=C(O)c1ccccc1", "note": "[Benzoic acid]", "values": [{"measurement": "Transdermal penetrability of MZR (artificial skin)", "setting": "[2]", "value": "Penetrated"}]}
{"compound": "O=C(O)/C=C\\C(=O)O", "note": "[Maleic acid]", "values": [{"measurement": "Water solubility", "setting": "[3]; 25° C.", "value": "78 g/100 mL (25° C.)"}]}
